Measured values: patent US20220331348A1, “METHOD OF PREPARING PENTACYCLIC TRITERPENOID SAPONINS AND DRUG COMPOSITION” (CHINA PHARMACEUTICAL UNIVERSITY, priority 2019, published 2022)

What was measured:
AMPK in Huh-7 cells = experiment: Activation activity on AMPK in Huh-7 cells (Western Blot); assay type: cell-based; conditions: 10 μM, 12 h, Western Blot gray scale, relative to DMSO = 1
[1] = test system: ulcerative colitis model mice induced by DSS; experiment: Dextran sulphate sodium salt (DSS) induced ulcerative colitis model mice; assay type: in vivo, mouse
Method: C57BL/6 male mice with 6-8 weeks old were selected; a control group was fed with purified water; and a model group, a treatment group and a positive control group were fed with purified water containing 2% dextran sulphate sodium salt (DSS) (36000-50000 M.Wt) for 7 days and then with the purified water for 3 days, and drug intervention was conducted at the same time. The mice in the control group and the model group were orally administered with carboxymethyl cellulose sodium as a placebo, the mice in the treatment group were orally administered with the ziyuglycoside II (purchased from Shanghai Boka Chemistry Technology Co., Ltd) (with a dosage of 5 mg/kg), and the mice in the positive control group were orally administered with 5-aminosalicylic acid as a clinical drug (5-ASA, purchased from Shanghai Sangon Biological Engineering Co., Ltd) (with a dosage of 100 mg/kg). In the administration process, weight changes, feces characters and hematochezia conditions of the mice were observed and recorded every day and were scored, and disease activity indexes were calculated (Disease activity index, DAI).
A scoring rule and a calculation method were as follows: DAT=(weight score+diarrhea score+occult blood score)/3, wherein weight score: 0 (weight gained or unchanged), 1 (weight lost by 1-5%), 2 (weight lost by 6-10%), 3 (weight lost by 11-15%), 4 (weight lost by 15% or above); diarrhea score: 0 (normal feces), 2 (soft feces), 4 (feces sticking anuses or diarrhea); and occult blood score: 0 (negative occult blood), 2 (positive occult blood), and 4 (visible bleeding). Comparing differences in DAI of various groups, it can be known that the ziyuglycoside II has significant prevention and treatment effects on ulcerative colitis of the mice modeled by the dextran sulphate sodium salt (DSS).
The above mice were sacrificed by cervical dislocation at day 11, colon tissues were harvested, lengths of the colon tissues were measured for statistical summary, and differences in colon length of various groups were compared, from which, the ziyuglycoside II has significant prevention and treatment effect on the ulcerative colitis model mice.
Middle segments, with lengths of about 1 cm, of the colon tissues of the above mice were selected, soaked in a formalin solution for fixing overnight, embedded with paraffin and sliced, and the slices were subjected to HE staining. […] Particularly, compared with the positive drug group, the ziyuglycoside II has the advantage of maintaining a thickness of a muscular layer.
10 mg of proximal rectum segments of the colon tissues of the above mice were selected, PBS was added for homogenization, and centrifugation was conducted for taking a supernate. The supernate was subjected to ELISA detection, and protein quantification was conducted for inflammatory factors TNF-α and IL-lb.
10 mg of colon tissues of the above mice were selected for detection of ROS therein.
When the ulcerative colitis occurs, the inflammatory factors may destruct tight junction between intestinal tracts, and destruction of the tight junction enables functions of mucosal barriers to be lost and accelerates development of the diseases. 5 mg of colon tissues of the above mice were selected for qPCR analysis. […] This hints that the ziyuglycoside II further has the efficacy of increasing the expression level of the tight junction and then protecting a structure of each colon. […] Therefore, the ziyuglycoside II is expected to be useful for preparing the drug for preventing or treating the inflammatory bowel diseases such as the ulcerative colitis.

[2] = test system: TNBS modeled Crohn's disease model mice; experiment: 2,4,6-trinitrobenzene sulfonic acid (TNBS) modeled Crohn's disease model mice; assay type: in vivo, mouse
Method: C57BL/6 male mice with 6-8 weeks old were selected and randomly divided into a control group, a mode group, a treatment group and a positive control group. Expect for the control group, after the mice in the rest groups anesthetized with isoflurane, hoses were carefully inserted into colons of the mice from anuses, and […] of 1.5% 2,4,6-trinitrobenzene sulfonic acid (TNBS) was slowly injected. Before the hoses were pulled out, the mice were placed upside down for 1 min. First intragastric administration was conducted at the day of enema treatment, the mice in the control group and the model group were orally administered with carboxymethyl cellulose sodium as a placebo, the mice in the treatment group were orally administered with the ziyuglycoside II (purchased from Shanghai Boka Chemistry Technology Co., Ltd) (with a dosage of 5 mg/kg), and the mice in the positive drug group were orally administered with 5-aminosalicylic acid as a clinical drug (5-ASA, purchased from Shanghai Sangon Biological Engineering Co., Ltd) (with a dosage of 100 mg/kg). Administration was continuously conducted for 7 days. In the administration process, the states of the mice were observed every day, and weight changes of the mice were recorded.
Differences in weight change of the mice in various groups were compared, from which, ziyuglycoside II has the treatment effect on the 2, 4, 6-trinitrobenzene sulfonic acid (TNBS) modeled Crohn's disease model mice.
The above mice were sacrificed by cervical dislocation at day 8, colon tissues were harvested, lengths of the colon tissues were measured for statistical summary, and differences in colon length of various groups were compared, from which, the ziyuglycoside II has significant treatment effect on the Crohn's disease model mice. […] 10 mg of proximal rectum segments of the colon tissues of the above mice were selected, PBS was added for homogenization, and centrifugation was conducted for taking a supernate. The supernate was subjected to ELISA detection, and protein quantification was conducted for inflammatory factors TNF- and IL-1. […] Myeloperoxidase (MPO) is an enzyme specific to neutrophils, and the amount of the neutrophils in the intestinal tracts may be reflected by detecting the MPO level. 5 mg of proximal rectum segments of the colon tissues of the above mice were selected, PBS was added for homogenization, and the content of the MPO in a homogenate was detected with a MPO kit (purchased from Nanjing Jiancheng Bioengineering Institute). […] Therefore, the ziyuglycoside II is expected to be useful for preparing the drug for preventing or treating the inflammatory bowel diseases such as the Crohn's disease.

[3] = DSS mice, 5 mg/kg orally, vs model group (FIG. 12 A)
[4] = DSS mice, 5 mg/kg, vs model group (FIG. 12 C)
[5] = 5 mg/kg orally, vs model group (FIG. 14 A)

## C[C@@H]1CC[C@]2(C(=O)O)CC[C@]3(C)C(=CC[C@@H]4[C@@]5(C)CC[C@H](O[C@@H]6OC[C@H](O)[C@H](O)[C@H]6O)C(C)(C)[C@@H]5CC[C@]43C)[C@@H]2[C@]1(C)O [(XIII), ziyuglycoside II]
AMPK in Huh-7 cells
  pAMPK/AMPK ratio: 2.51
[1]; DSS mice, 5 mg/kg (FIG. 12 B)
  content of the ROS in colon tissues: significantly lowered
[1]; DSS mice, 5 mg/kg orally (FIG. 11)
  colon histopathology (HE staining): infiltration of the inflammatory cells is reduced
[1]; DSS mice, 5 mg/kg orally, day 11, vs model group (FIG. 10 B)
  colon lengths: significantly larger than those of the model group
[1]; DSS mice, 5 mg/kg orally, vs model group (FIG. 10 A)
  DAI scores (disease activity index): obviously lower than that of the model group
[1]; [3]
  expression level of inflammatory factor IL-1 in colon tissue (ELISA): significantly lower than those of the model group
  expression level of inflammatory factor TNF-α in colon tissue (ELISA): significantly lower than those of the model group
[1]; [4]
  expression level of Claudin-1 in colon (qPCR): significantly increased
  expression level of Occludin in colon (qPCR): significantly increased
  expression level of ZO-1 in colon (qPCR): significantly increased
[1]; DSS-induced mice, dose not given, vs model group
  DAI scores of the treatment group: obviously lower than those of the model group
[2]; 5 mg/kg (FIG. 14 B)
  content of the MPO in colon tissues: significantly lowered
[2]; 5 mg/kg orally, 7 days, vs model group (FIG. 13 A)
  drop scope of weight loss: obviously lower than that of the model group
[2]; 5 mg/kg orally, day 8, vs model group (FIG. 13 B)
  colon lengths: significantly larger than those of the model group
[2]; [5]
  expression level of inflammatory factor IL-1 in colon tissue (ELISA): significantly lower than those of the model group
  expression level of inflammatory factor TNF- in colon tissue (ELISA): significantly lower than those of the model group
[2]; dose not given
  colon length of the treatment group compared with the control group: nearly no difference
[2]; dose not given, vs model group
  expression level of inflammatory factor IL-1β: significantly lower than those of the model group
  expression level of inflammatory factor TNF-α: significantly lower than those of the model group
